US10214583B2, “Sodium pump antibody agonists and methods of treating heart disease using the same” (priority 2011, dated 2019)
“Also recorded” adds a separate entry of the source.

How the values were obtained:
isolated rat myocytes = assay: Nifedipine and KB-R7943 sensitive 45Ca influx; assay type: cell-based
Method: The reaction was stopped by adding 5 mM EGTA on ice and cells were washed and spun at 4000 rpm for 2 min (×3) to remove extracellular ^45Ca. Net intracellular counts per minute (cpm) of ^45Ca for each sample was determined by using a β-scintillation counter and the concentration of ^45Ca was calculated as described previously (20).

[1] = system: isolated rat cardiac myocytes; assay: Sodium Green fluorescence (intracellular Na+); assay type: cell-based
Method: The final concentration of Sodium Green in each sample tube was 10 μM during the incubation. The myocytes were then transferred to 96-well plates (Nunc) and the measurement of Sodium Green fluorescence was carried out by excitation at 485 nm and quantifying emission at 535 nm using a VICTOR-II multilabel counter (PerkinElmer Life Sciences).

[2] = system: isolated rat cardiac myocytes; assay: Rat myocyte contractility (cell shortening); assay type: cell-based; details: 0.1 mM PB2948 + 0.5 μM JY2948
Description: Rat ventricular myocytes were isolated as described (18). The contraction amplitude was indexed by the percentage shortening of cell length (19).

NKA β1 subunit = assay: Specificity analysis by Western blotting; assay type: binding, pig, dog, rat; details: PB2948
Method: Samples of purified rat and dog NKA, along with SDS-stripped pig α1 and β1 subunits (30 μg each) were mixed with electrophoresis sample buffer separately, boiled for 5 min, and loaded on freshly made 7.5% SDS-PAGE gel. Following electrophoresis, the samples were transferred from the SDS gel to a nitrocellulose membrane (0.45 μm). […] The membranes were then washed and incubated with secondary antibody (1:7500) for 1 hour. The color was then developed for visual analysis.

[3] = system: Spontaneously Hypertensive Heart Failure (SHHF) rats; assay: Immunization of late-stage SHHF rats, heart function by echo; assay type: in vivo; details: 14 months old SHHF rats, control rat died
Method: Studies were also conducted on the ability of NKA alpha subunit peptides to induce a therapeutic immune response in late-stage Spontaneously Hypertensive Heart Failure (SHHF) rats. The SHHF rats used for this study were 14 months old with late-stage heart failure. The heart function was measured by echo and expressed as percent of fractional shortening (FS %). The initial heart functions were 26.0% and 28.0% for control SHHF rat and the one with immunization, respectively. […] The peptide with which the rats were immunized has the following amino acid sequence […] (SEQ ID NO:7), as disclosed in U.S. Pat. No. 7,754,210.

C[C@@H]1O[C@@H](O[C@H]2C[C@@H](O)[C@]3(CO)[C@H]4[C@H](O)C[C@]5(C)[C@@H](C6=CC(=O)OC6)CC[C@]5(O)[C@@H]4CC[C@]3(O)C2)[C@H](O)[C@H](O)[C@H]1O [ouabain]
ouabain-induced 45Ca influx relative to JY2948/β1 subunit-induced influx (isolated rat myocytes): 4.4 fold
share of ouabain-induced 45Ca influx through LTCC (isolated rat myocytes): approximately 40%
share of ouabain-induced 45Ca influx through NCX (isolated rat myocytes): ~60%
45Ca influx (isolated rat myocytes; ouabain 2.5 mM alone): 330±6.4 pCi
nifedipine-resistant 45Ca influx (isolated rat myocytes; ouabain + 10 μM nifedipine): 188±78 pCi
ouabain-induced 45Ca influx (isolated rat myocytes; ouabain + both nifedipine and KB-R7943): completely impeded; also recorded: completely abolished
Sodium Green fluorescence intensity ([1]; ouabain (2.5 mM)): 136±13%
Sodium Green fluorescence intensity ([1]; ouabain + 5 μM KB-R7943): 153±19%
Sodium Green fluorescence intensity ([1]; ouabain + 30 μM KB-R7943): 151±23%

KERGEFNHERGER (listed as Rattus norvegicus) [PB2948]
JY2948-induced positive inotropic effect in the presence of peptide blocker [2]: completely eliminated
interaction between JY2948 and native β1 subunit in presence of peptide blocker (NKA β1 subunit): completely abolished

N=C(N)SCCc1ccc(OCc2ccc([N+](=O)[O-])cc2)cc1 [KB-R7943]
effect on JY2948-induced 45Ca influx (isolated rat myocytes; KB-R7943 (5 μM)): failed to inhibit
changes of 45Ca concentration compared with control cell background (isolated rat myocytes; KB-R7943 alone (504 [sic])): No significant changes
Sodium Green fluorescence intensity ([1]; 5 μM KB-R7943 alone, control 100): 99±10%
Sodium Green fluorescence intensity ([1]; 30 μM KB-R7943 alone, control 100): 102±7.0%

DVEDSYGQQWTYEQR (chemically-synthesized antigen) [SEQ ID NO:7, NKA alpha subunit peptide used to immunize SHHF rats, disclosed in U.S. Pat. No. 7,754,210]
late-stage SHHF rat cardiac function (fractional shortening, FS %) [3]: significantly improved
